Data published in ChEMBL document CHEMBL1201862, “PubChem BioAssay data set” (2004).
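Tested at 5 concentrations; 48 h exposure; 96-well plates; endpoints linearly interpolated, else capped at highest concentration. At the GI50, growth is halved.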 Calls of active or inactive are those of the source. Rule as the data show it: active = GI50 up to about 1.1 µM and inactive = higher.

Tests used:
Assay in all cases: inhibition of tumour cell growth, NCI panel, 48 h
DU-145 = tested on: DU-145
EKVX = tested on: EKVX
HCT-116 = tested on: HCT-116
K562 = tested on: K562
KM12 = tested on: KM12
M14 = tested on: M14
NCI-H23 = tested on: NCI-H23
NCI-H460 = tested on: NCI-H460
OVCAR-3 = tested on: OVCAR-3
OVCAR-8 = tested on: OVCAR-8
RPMI-8226 = tested on: RPMI-8226
RXF 393 = tested on: RXF 393
SF-268 = tested on: SF-268
SR = tested on: SR
SW-620 = tested on: SW-620
T47D = tested on: T47D
TK-10 = tested on: TK-10
UO-31 = tested on: UO-31
A498 = tested on: A498
HOP-92 = tested on: HOP-92

Measured: GI50

CCOC(=O)C(C)NC(=O)C(C)NC(=O)C(C)NC(=O)C(C)NC(=O)C(C)NC(=O)OCc1ccccc1 (centres undefined)
inactive: DU-145 > 100 µM | EKVX > 100 µM | HCT-116 > 100 µM | K562 > 100 µM | KM12 > 100 µM | M14 > 100 µM | NCI-H23 > 100 µM | NCI-H460 > 100 µM | OVCAR-3 > 100 µM | OVCAR-8 > 100 µM | RPMI-8226 > 100 µM | RXF 393 > 100 µM | SF-268 > 100 µM | SR > 100 µM | SW-620 > 100 µM | T47D > 100 µM | TK-10 > 100 µM | UO-31 > 100 µM

C=CCCCC1(C)CCCCNC1=O (centres undefined)
inactive: A498 > 10 µM | DU-145 > 10 µM | EKVX > 10 µM | HCT-116 > 10 µM | K562 > 10 µM | KM12 > 10 µM | M14 > 10 µM | NCI-H23 > 10 µM | NCI-H460 > 10 µM | OVCAR-3 > 10 µM | OVCAR-8 > 10 µM | RPMI-8226 > 10 µM | RXF 393 > 10 µM | SF-268 > 10 µM | SR > 10 µM | SW-620 > 10 µM | T47D > 10 µM | TK-10 > 10 µM | UO-31 > 10 µM

O=C1NC(N2CCCC(CO)C2)=N/C1=C\c1ccccc1 (centres undefined)
inactive: DU-145 > 100 µM | EKVX > 100 µM | HCT-116 > 100 µM | HOP-92 > 100 µM | KM12 > 100 µM | M14 > 100 µM | NCI-H23 > 100 µM | OVCAR-3 > 100 µM | OVCAR-8 > 100 µM | RPMI-8226 > 100 µM | RXF 393 > 100 µM | SF-268 > 100 µM | SR > 100 µM | SW-620 > 100 µM | T47D > 100 µM | TK-10 > 100 µM | UO-31 > 100 µM

N=C(NCc1ccccc1)N/N=C\c1ccnc2ccccc12
inactive: A498 12.5 µM | DU-145 16.5 µM | EKVX 10 µM | HOP-92 1.43 µM | K562 4.31 µM | KM12 15.9 µM | M14 4.84 µM | NCI-H23 15.7 µM | NCI-H460 13.9 µM | OVCAR-3 11.6 µM | OVCAR-8 13.5 µM | RPMI-8226 1.29 µM | SF-268 12.3 µM | SR 2.09 µM | SW-620 14.8 µM | T47D 1.41 µM | TK-10 14.8 µM | UO-31 10.4 µM

Cc1ccc2c(c1)NC(c1ccc(C(=O)O)cc1)c1cccn1-2 (centres undefined)
inactive: A498 22.9 µM | DU-145 26 µM | EKVX 22.1 µM | HCT-116 47.9 µM | K562 > 100 µM | KM12 30.7 µM | M14 46.8 µM | NCI-H23 > 100 µM | NCI-H460 66.5 µM | OVCAR-3 47.3 µM | RPMI-8226 > 100 µM | RXF 393 19.7 µM | SR > 100 µM | SW-620 > 100 µM | T47D 13.7 µM | TK-10 30.8 µM

O=C(NCCNCCO)N/N=C/c1ccc([N+](=O)[O-])cc1
inactive: A498 47.4 µM | DU-145 > 100 µM | HCT-116 > 100 µM | K562 > 100 µM | KM12 > 100 µM | M14 > 100 µM | NCI-H23 > 100 µM | NCI-H460 > 100 µM | OVCAR-3 > 100 µM | OVCAR-8 > 100 µM | SF-268 > 100 µM | SR > 100 µM | SW-620 > 100 µM | T47D > 100 µM | TK-10 90.8 µM | UO-31 > 100 µM
